Results as given in PubChem BioAssay (NCI).
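The compound was tested at five concentrations on cells cultured in 96-well plates, with a 48-hour exposure period. The concentration for 50% growth inhibition is given as GI50. Definition used: TGI = concentration required for complete inhibition of growth.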

How the values were obtained:
Test in all cases: growth of human tumour cells (NCI), 48 h
[1] = tested on: A498 renal
[2] = tested on: HS 578T breast
[3] = tested on: HCC-2998 colon
[4] = tested on: SF-268 CNS
[5] = tested on: NCI-H23 lung
[6] = tested on: KM12 colon
[7] = tested on: NCI-H522 lung
[8] = tested on: 786-0 renal
[9] = tested on: UO-31 renal
[10] = tested on: HOP-62 NSCLC
[11] = tested on: RPMI-8226 leukemia
[12] = tested on: UACC-257 melanoma
[13] = tested on: CCRF-CEM leukemia
[14] = tested on: IGROV1 ovarian
[15] = tested on: SK-OV-3 ovarian
[16] = tested on: M14 melanoma
[17] = tested on: U251 CNS
[18] = tested on: MCF7 breast
[19] = tested on: MOLT-4 leukemia
[20] = tested on: MDA-MB-435
[21] = tested on: HT29 colon
[22] = tested on: ACHN renal
[23] = tested on: COLO 205 colon
[24] = tested on: SNB-75 CNS
[25] = tested on: SN12C renal
[26] = tested on: T-47D breast
[27] = tested on: TK-10 renal
[28] = tested on: HCT-15 colon
[29] = tested on: HCT-116 colon
[30] = tested on: A549 NSCLC
[31] = tested on: NCI/ADR-RES ovarian
[32] = tested on: LOX IMVI melanoma
[33] = tested on: BT-549 breast
[34] = tested on: HL-60(TB) leukemia
[35] = tested on: SK-MEL-2 melanoma
[36] = tested on: MDA-MB-231 breast
[37] = tested on: SNB-19 CNS
[38] = tested on: SK-MEL-5 melanoma
[39] = tested on: HOP-92 NSCLC
[40] = tested on: PC-3 prostate
[41] = tested on: NCI-H460 lung
[42] = tested on: SF-295 CNS
[43] = tested on: OVCAR-3 ovarian
[44] = tested on: UACC-62 melanoma
[45] = tested on: SW-620 colon
[46] = tested on: SR leukemia
[47] = tested on: DU-145 prostate

## C=C1C(=O)O[C@H]2[C@H]1CC/C(COC(=O)CCCC(=O)OC/C1=C/CC[C@@]3(C)O[C@H]3[C@H]3OC(=O)C(=C)[C@@H]3CC1)=C\CC[C@@]1(C)O[C@@H]21
[1]
  GI50: 5.58 µM
  TGI: 19 µM
[2]
  GI50: 3.42 µM
  TGI: > 100 µM
[3]
  GI50: 2.07 µM
  TGI: 4.22 µM
[4]
  GI50: 2.77 µM
  TGI: 15.1 µM
[5]
  GI50: 2.28 µM
  TGI: 6.67 µM
[6]
  GI50: 2.24 µM
  TGI: 6.85 µM
[7]
  GI50: 0.678 µM
  TGI: 2.34 µM
[8]
  GI50: 1.35 µM
  TGI: 2.79 µM
[9]
  GI50: 1.11 µM
  TGI: 2.31 µM
[10]
  GI50: 3.31 µM
  TGI: 16 µM
[11]
  GI50: 0.362 µM
  TGI: 1.5 µM
[12]
  GI50: 2 µM
  TGI: 4.97 µM
[13]
  GI50: 0.281 µM
  TGI: 0.757 µM
[14]
  GI50: 1.66 µM
  TGI: 4.54 µM
[15]
  GI50: 9.89 µM
  TGI: > 100 µM
[16]
  GI50: 1.72 µM
  TGI: 4.51 µM
[17]
  GI50: 2.92 µM
  TGI: 10.3 µM
[18]
  GI50: 0.5 µM
  TGI: 2.43 µM
[19]
  GI50: 0.396 µM
  TGI: 2.07 µM
[20]
  GI50: 1.69 µM
  TGI: 5.18 µM
[21]
  GI50: 0.752 µM
  TGI: 2.16 µM
[22]
  GI50: 0.764 µM
  TGI: 2.03 µM
[23]
  GI50: 0.592 µM
  TGI: 2.15 µM
[24]
  GI50: 2.84 µM
  TGI: > 100 µM
[25]
  GI50: 2.3 µM
  TGI: 6.92 µM
[26]
  GI50: 1.19 µM
  TGI: 3.81 µM
[27]
  GI50: 1.53 µM
  TGI: 3.04 µM
[28]
  GI50: 0.814 µM
  TGI: 2.35 µM
[29]
  GI50: 1.29 µM
  TGI: 2.57 µM
[30]
  GI50: 4.46 µM
  TGI: 41.7 µM
[31]
  GI50: 4.63 µM
  TGI: > 100 µM
[32]
  GI50: 1.04 µM
  TGI: 2.31 µM
[33]
  GI50: 1.37 µM
  TGI: 2.95 µM
[34]
  GI50: 0.274 µM
  TGI: 1.39 µM
[35]
  GI50: 2.18 µM
  TGI: 6.5 µM
[36]
  GI50: 1.39 µM
  TGI: 2.9 µM
[37]
  GI50: 2.91 µM
  TGI: 14.4 µM
[38]
  GI50: 2.25 µM
  TGI: 5.68 µM
[39]
  GI50: 1.87 µM
  TGI: 3.65 µM
[40]
  GI50: 2.86 µM
  TGI: 8.37 µM
[41]
  GI50: 3.18 µM
  TGI: 12.7 µM
[42]
  GI50: 4.71 µM
  TGI: > 100 µM
[43]
  GI50: 0.401 µM
  TGI: 1.52 µM
[44]
  GI50: 1.54 µM
  TGI: 4.53 µM
[45]
  GI50: 0.608 µM
  TGI: 2.04 µM
[46]
  GI50: 0.501 µM
  TGI: 3.45 µM
[47]
  GI50: 1.45 µM
  TGI: 2.77 µM
